Paper PMC10058050, “A Bitter Taste Receptor as a Novel Molecular Target on Cancer-Associated Fibroblasts in Pancreatic Ductal Adenocarcinoma” (Pharmaceuticals, 2023)

Columns and labels:
[1] = all dose levels up to 240 mg; cited from earlier work
Source text: While mounting evidence points to a role of bitter taste receptors in cancer epithelial cells and in Tuft cells, this report, is to our knowledge, the first indication that TAS2R9 is expressed on CAFs. The fact that TAS2R9 is overexpressed in 7.33% of human PDAC tissue, and that its expression in pancreatic CAFs is 57-fold higher than in the human dermal fibroblast raises the interesting question of what role TAS2R9 may play in CAFs. In particular, the revelation that TAS2R9 mRNA expression ...

KPC mice = conditions: cited from earlier work
Source text: CXCR2 antagonists have been explored in non-cancer lung diseases (e.g., NCT01255592, NCT01006616) and in certain cancers such as castration-resistant prostate cancer (NCT03177187) and squamous cell carcinoma of the head and neck (NCT02499328).

Ki67 = Ki67 staining of tumor sections (cell proliferation); type: in vivo, mouse (athymic nude); conditions: ImageJ; p < 0.01
Protocol: Tumor sections were blocked for 1 h in blocking buffer, and incubated with FITC-conjugated anti-CD31 (BD biosciences, 1:100, 20 min) then anti-rat secondary (1:250, 20 min), or anti-Ki67 (Abcam, 1:250, 20 min) then anti-rabbit secondary (1:250, 20 min). Images were collected using ZEISS LSM-880 Confocal Laser Scanning Microscope (Carl Zeiss Meditec, Inc., Jena, Germany). Mander’s correlation coefficients were determined using the JACoP plugin in ImageJ (National Institute of Health, Bethesda, MD, USA) for the colocalization analysis. To characterize CD31 and Ki67 expression, the area fraction of the positive pixels was measured for each image using the Measurement Tool in ImageJ. Section averages were entered into Prism to find overall means for each treatment group and tested for statistical significance between groups using the Student’s t-test.
The drug dosage was calculated for each treatment to achieve the same weekly amount of Sb225002 given per animal. Tumor volume was measured with calipers twice weekly until day 19, at which time the tumors were harvested for cell proliferation (Ki67) and angiogenesis (CD31) analysis, and CXCR2 IHC staining.

CXCR2 = conditions: cited from earlier work
Source text: To further evaluate pharmacodynamics, we characterized CXCR2 inhibition as a surrogate for the delivery of SB225002. Tumors from all groups were fixed and paraffin embedded for immunohistochemistry staining. […] Furthermore, the inhibition of angiogenesis has been cited as a contributing factor to th ...

[2] = system: recombinant human TAS2R9 (rhTAS2R9); assay: Phage ELISA on recombinant human TAS2R9 (in-proteo ELISA); type: binding; conditions: 4 × 10^9 pfu phage; absorbance 650 nm, 35 min after TMB; normalized to M13KE; 1 h RT; n = 3, p < 0.05
Protocol: Thus, we hypothesized that their binding partners could serve as potential cellular markers and therapeutic targets for CAFs. Using a phage display-based functional proteomics approach, wild-type (WT) M13KE phage or phage displaying CAF selective peptides (phHTTIPKV and phAPPIMSV) were incubated with PDAC patient-derived CAFs allowing the phage to serve as “bait.” Phage were chemically modified to crosslink to their cell surface binding partner, then phage pull-down samples were resolved via SDS-PAGE. […] In-proteo ELISA experiments were performed to evaluate the specific binding of phHTTIPKV to recombinant human TAS2R9 (rhTAS2R9). Phage displaying KTLLPTP (phKTLLPTP), a PDAC epithelial cell-specific peptide, served as a negative control. […]
(§1) Figure 1 TAS2R9 expression in CAFs isolated from human PDAC. […] (B) 4 × 10^9 pfu phHTTIPKV and a PDAC specific phage, phKTLLPTP, were applied to rhTAS2R9 to determine the absorbance of phage binding to rhTAS2R9 at 650 nm. The absorbance of both phage were normalized to the absorbance detected from rhTAS2R9 bound to the wild-type M13Ke phage. n = 3, * p < 0.05. […]
About 100 μL of 0.1 μg/mL rhTAS2R9 (Novus Biological, Littleton, CO, USA) was plated in 96-well plates overnight at 4 °C. […] The absorbance was measured on a microplate reader at 650 nm at 35 min post addition of TMB

[3] = system: PDAC patient-derived CAFs (TAS2R9); assay: Phage display-based pulldown from PDAC patient-derived CAFs with MS/MS identification; type: binding, human; conditions: SDS-PAGE, compared with WT M13KE phage and phAPPIMSV
Protocol: Thus, we hypothesized that their binding partners could serve as potential cellular markers and therapeutic targets for CAFs. Using a phage display-based functional proteomics approach, wild-type (WT) M13KE phage or phage displaying CAF selective peptides (phHTTIPKV and phAPPIMSV) were incubated with PDAC patient-derived CAFs allowing the phage to serve as “bait.” Phage were chemically modified to crosslink to their cell surface binding partner, then phage pull-down samples were resolved via SDS-PAGE. […] In-proteo ELISA experiments were performed to evaluate the specific binding of phHTTIPKV to recombinant human TAS2R9 (rhTAS2R9). Phage displaying KTLLPTP (phKTLLPTP), a PDAC epithelial cell-specific peptide, served as a negative control. […] Therefore, we pursued validation of TAS2R9 as HTTIPKV’s target and as a novel CAF-selective cell surface marker.
as §1, with “PDAC. (A) Phage pulldowns from PDAC patient-derived CAFs by the M13Ke (lane 1) and CAF-specific phages, phAPPIMSV and phHTTIPKV (lane 2 and 3).” for “PDAC.”

[4] = system: CAFs isolated from the stroma of PDAC patients; conditions: cited from earlier work; for Specificity and selectivity for CAFs: CAFs isolated from the stroma of PDAC patients
[5] = target: T1, recombinant human TAS2R9 (rhTAS2R9) (human) (UniProt Q9NYW1); assay: ELISA; 0.1 ug/mL rhTAS2R9 coated on 96-well plates overnight at 4 °C, 5% milk block, 40 uL phage at 1 x 10^8 pfu/uL for 1 h at room temperature, HRP anti-M13 antibody, absorbance at 650 nm; normalised to wild-type M13KE phage
T1 sequence (Q9NYW1 whole entry, looked up): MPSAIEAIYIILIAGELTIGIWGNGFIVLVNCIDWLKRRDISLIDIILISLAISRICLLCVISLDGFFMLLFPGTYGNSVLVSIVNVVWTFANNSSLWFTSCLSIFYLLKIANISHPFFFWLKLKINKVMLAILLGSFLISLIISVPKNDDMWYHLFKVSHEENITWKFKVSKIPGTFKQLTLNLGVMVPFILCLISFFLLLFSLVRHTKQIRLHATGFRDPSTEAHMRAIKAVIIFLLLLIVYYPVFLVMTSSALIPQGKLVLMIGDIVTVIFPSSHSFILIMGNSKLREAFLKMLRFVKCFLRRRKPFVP

## CC(=O)[O-].CC[N+](CC)(CC(=O)Nc1c(C)cccc1C)Cc1ccccc1 [pan-TAS2R agonist, Denatonium Acetate]
[1]
  Tolerability in phase one clinical trial: well tolerated at all dose levels up to 240 mg

## O=C(Nc1ccc([N+](=O)[O-])cc1O)Nc1ccccc1Br [SB225002]
KPC mice
  Survival of KPC mice: profoundly prolong survival in KPC mice
Ki67
  Ki67+ area fraction (cell proliferation): significant reduction in Ki67+ area fraction
CXCR2
  Contribution to anti-tumor effects: angiogenesis: inhibition of angiogenesis has been cited as a contributing factor to the anti-tumor effects

## HTTIPKV [phHTTIPKV]
[2]
  Increase in specific binding to rhTAS2R9 compared to phKTLLPTP: 2.72 fold

## HTTIPKV
[3]
  Unique band in phage pulldown: presence of a unique band
[4]
  Specificity and selectivity for CAFs: high specificity and selectivity for CAFs
[4]; signature database of 56 cell lines and tissues
  Selectivity for CAFs in vitro and in vivo: selective for CAFs across in vitro and in vivo experiments

## APPIMSV
[4]
  Specificity and selectivity for CAFs: high specificity and selectivity for CAFs

## HTTIPKV [phage displaying HTTIPKV (phHTTIPKV)]
[5]
  fold specific binding against phKTLLPTP (each normalised to M13KE phage): 2.72 fold
